{
  "source": "patent US6461624B2",
  "about": "“Skin-protective composition” (priority 1997, dated 2002)",
  "test_in_all_cases": "Cell survival / percentage killing of a culture exposed to an agent (viable counts)",
  "key": {"[1]": {"test_system": "E. coli (lab isolate)", "format": "cell-based, Escherichia coli", "details": "0.5% lauric acid Na salt and/or 0.25% Parabens Na salt", "experimental": "(§1) Determination of the Cell Counts\n(§2) This was achieved by a number of different techniques depending on the circumstances involved. The techniques used were:\n(§3) 1. Standard spread plate technique\n(§4) This involves spreading a 100 μl aliquot of the desired dilution onto well dried agar plates using an alcohol flamed hockey stick.\n(§5) In this method 1 ml samples of the diluted culture are placed into a sterile petri dish and then sterile cooled agar is added. The plate is then gently swirled to facilitate a […] mixing of the sample and the agar and allowed to solidify before being incubated at the temperature of choice in an inverted manner.\n(§6) 3. Spot/drop plating method\n(§7) This method involves the placing of a sample or the diluted sample onto a pre-dried agar plate but the sample is allowed to dry into the plate. Usually an aliquot of 5-20 μl is chosen to be thus plated. This method offers the advantages of being both economical in terms of agar plates (several drops can be readily accommodated on one agar plate) and also accurate.\n(§8) All plates were incubated for 16 hours before being counted.\n(§9) All dilutions were carried out in ¼×Ringers solution and all bacteria were grown up in Tryptic Soy Broth (TSB)\nDetermination of the cell survival/percentage killing of a culture with respect to exposure to a given agent. […]"}, "[2]": {"test_system": "Ps. aeruginosa (lab isolate)", "format": "cell-based, Pseudomonas aeruginosa", "details": "for Percentage of cells killed after 5 minutes exposure, Ps. aeruginosa: 0.5% lauric acid Na salt and/or 0.25% Parabens Na salt, sodium salt", "experimental": "as §1, §2, §3, §4, §5, §6, §7, §8, §9\n(§10) Determination of the cell survival/percentage killing of a culture with respect to exposure to a given agent.\n(§11) In this method a sample of a fresh overnight culture was titred and a sample (usually 5 mls) was added to either broth (100mls) containing the test reagents or sterile water (100 mls) and test agents.\n(§12) Immediately a sample (T0) was taken and plated using one of the techniques listed above. At regular intervals thereafter other samples were also removed, diluted and plated.\n(§13) Error is 1 standard deviation of the mean."}, "[3]": {"test_system": "Vancomycin-resistant Enterococci", "format": "cell-based, Enterococcus", "details": "for killing effect / mode of action on Vancomycin-resistant Enterococci (in words): methyl/propyl paraben Na salt 0.25% (w/v) (1:1) and/or lauric acid Na salt 0.50% (w/v), sodium salt", "experimental": "as §1, §2, §3, §4, §5, §6, §7, §8, §9, §10, §11, §12, §13"}, "[4]": {"test_system": "MRSA strain S13", "format": "cell-based, Methicillin Resistant Staphylococcus aureus", "details": "for Percentage of cells killed after 5 minutes exposure, MRSA (S13): 0.5% lauric acid Na salt and/or 0.25% Parabens Na salt, sodium salt", "experimental": "as §1, §2, §3, §4, §5, §6, §7, §8, §9, §10, §11, §12, §13"}, "[5]": {"details": "methyl/propyl paraben Na salt 0.25% (w/v) (1:1) and/or lauric acid Na salt 0.50% (w/v)"}},
  "data": [
    {"smiles": "CCCCCCCCCCCC(=O)[O-].[Na+]", "note": "[lauric acid Na salt, lauric acid sodium salt]", "values": [
      {"measurement": "Percentage of cells killed after 5 minutes exposure, E. coli", "setting": "[1]", "value": ">90"},
      {"measurement": "Percentage of cells killed after 5 minutes exposure, Ps. aeruginosa", "setting": "[2]; listed as lauric acid", "value": 13},
      {"measurement": "Percentage of cells killed after 5 minutes exposure, Ps. aeruginosa", "setting": "[2]", "value": ">13"},
      {"measurement": "killing effect / mode of action on Ps. aeruginosa (in words)", "setting": "[2]; [5]", "value": "not effective"},
      {"measurement": "Percentage of cells killed after 5 minutes exposure, Vancomycin Resistant Enterococcus", "setting": "[3]; 5 minutes, 0.5% lauric acid Na salt and/or 0.25% Parabens Na salt", "value": 100},
      {"measurement": "kill rate", "setting": "[3]; after 5 mins", "value": 100, "unit": "%"},
      {"measurement": "survivors present when samples were plated", "setting": "[3]; after 5 mins, T0 count 4.63×10^7 cfu/ml", "value": "no survivors"},
      {"measurement": "killing effect / mode of action on Vancomycin-resistant Enterococci (in words)", "setting": "[3]; listed as Lauric acid Na salt", "value": "bactericidal"},
      {"measurement": "killing effect / mode of action on Vancomycin-resistant Enterococci (in words)", "setting": "[3]; listed as lauric acid", "value": "totally destroyed"},
      {"measurement": "survivors present when samples were plated", "setting": "[3]; strain FPL050, after 5 mins", "value": "no survivors"},
      {"measurement": "reduction of a population of MRSA", "setting": "[4]; 0.50% lauric acid Na salt, isolate S13 in water held at 37° C., over 2 hrs", "value": 99.8, "unit": "%"},
      {"measurement": "killing of MRSA", "setting": "[4]; 0.50% lauric acid Na salt, repeated experiment, after 30 mins", "value": 99.6, "unit": "%"},
      {"measurement": "killing of MRSA", "setting": "[4]; 1.75% lauric acid Na salt, isolate S13, over 2 hrs", "value": "< 99.0", "unit": "%"},
      {"measurement": "Percentage of cells killed after 5 minutes exposure, MRSA (S13)", "setting": "[4]; listed as lauric acid", "value": "more than 97"},
      {"measurement": "Percentage of cells killed after 5 minutes exposure, MRSA (S13)", "setting": "[4]", "value": ">97"},
      {"measurement": "killing effect / mode of action on MRSA isolate S13 (in words)", "setting": "[4]; [5]", "value": "does elicit killing effect"}
    ]}
  ]
}
